These results are taken from patent publication US20210395210A1, “INHIBITION OF BACTERIAL CHAPERONIN SYSTEMS” (THE TRUSTEES OF INDIANA UNIVERSITY, priority 2018, published 2021).

Read-outs that look alike come from different tables or passages of the source.

Experiment [1] relates to Klebsiella Pneumonia (ATCC 13883). Nature of the experiment: Bacterial proliferation assay, K. pneumoniae. In kind it is cell-based. The text has this: (§1) Bacterial Strains: Enterococcus faecium—(Orla-Jensen) Schleifer and Kilpper-Balz strain NCTC 7171 (ATCC 19434); Drug sensitive Staphylococcus aureus—Rosenbranch strain Seattle 1945 (ATCC 25923); Methicillin resistant S. aureus (MRSA)—Rosenbach strain HPV107 (ATCC BAA-44); Klebsiella Pneumonia—(Schroeter) Trevisan strain NCTC 9633 (ATCC 13883); Acinetobacter baumannii—Bouvet and Grimont strain 2208 (ATCC 19606); Pseudomonas aeruginosa—(Schroeter) Migula strain NCTC 10332 (ATCC 10145); Enterobacter cloacae—E. cloacae, subsp. cloacae (Jordan) Hormaeche and Edwards strain CDC 442-68 (ATCC 13047).
(§2) Growth Media: All bacteria were grown in Brain Heart Infusion (BHI) broth/agar (Becton, Dickinson and Company). All liquid cultures were grown in BHI media supplemented with 25 mg/L Ca^2+ and 12.5 mg/L Mg^2+ to mimic free physiological concentrations of these cations. A 10 mg/mL Ca^2+ stock solution was prepared by dissolving 3.68 g of CaCl2.2H2O in 100 mL of deionized water, and a 10 mg/mL Mg^2+ stock solution was prepared by dissolving 8.36 g of MgCl2.6H2O in 100 mL deionized water. Both stock solutions were filter-sterilized using 0.2 μm pore size cellulose-acetate filters. 2.5 mL of the sterile 10 mg/mL Ca^2+ stock and 1.25 mL of the sterile 10 mg/mL Mg^2+ stock solutions were added per 1 L of autoclaved BHI medium to obtain 25 mg/L Ca^2+ and 12.5 mg/L Mg^2+ ions, respectively.
(§3) General Assay Protocol: Stock bacterial cultures were streaked onto BHI agar plates and grown overnight at 37° C. Fresh aliquots of broth were inoculated with single bacterial colonies and the cultures were grown overnight at 37° C. with shaking (240 rpm) in cation adjusted BHI media. The following morning, the overnight cultures were sub-cultured (1:5 dilution) into fresh aliquots of cation adjusted BHI media and grown at 37° C. for 1-2 hours with shaking. After 2 h, cultures were diluted into fresh media to achieve final OD600 readings of 0.017. Aliquots of these diluted cultures (30 μL) were added to clear, flat-bottom, 384-well polystyrene plates that were stamped with 0.5 μL of test compounds in 20 μL media. […] Plates were sealed with “Breathe Easy” oxygen permeable membranes (Diversified Biotech) and left to incubate at 37° C. without shaking (stagnant assay). OD600 nm readings were taken at either 6-8 h (S. aureus, MRSA, K. pneumonia, E. cloacae, and P. aeruginosa) or 24 h (E. faecium and A. baumannii). A second set of baseline control plates were prepared analogously, but without any bacteria added, to correct for possible compound absorbance and/or precipitation. Plates were then read at 600 nm using a Molecular Devices SpectraMax Plus384 microplate reader. […] Results presented represent the averages of EC50 values obtained from at quadriplicate (duplicate of duplicate) replicates.

The subject of experiment [2] is Enterococcus faecium (ATCC 19434). Nature of the experiment: Bacterial proliferation assay, E. faecium. In kind it is cell-based.
From the text: as §1, §2, §3

In experiment [3] the test system is Drug sensitive Staphylococcus aureus (ATCC 25923). The experiment is described as follows: Bacterial proliferation assay, drug sensitive S. aureus. The format is cell-based.
From the text: as §1, §2, §3

The subject of experiment [4] is Enterobacter cloacae (ATCC 13047). The experiment is described as follows: Bacterial proliferation assay, E. cloacae. The format is cell-based.
From the text: as §1, §2, §3

For experiment [5], the system named is Methicillin resistant S. aureus (MRSA) (ATCC BAA-44). The experiment is described as follows: Bacterial proliferation assay, MRSA. The format is cell-based, Staphylococcus aureus. The note with it: Staphylococcus aureus.
From the text: as §1, §2, §3

Experiment [6] has as its system Pseudomonas aeruginosa (ATCC 10145). Nature of the experiment: Bacterial proliferation assay, P. aeruginosa. In kind it is cell-based.
From the text: as §1, §2, §3

The mark [7] stands for this setting: ATCC13883, OD600 at 6-8 h, read-out: Bacterial Proliferation EC50 K. pneumoniae.
Setting [8] is: ATCC13883, log of EC50 (μM scale), with standard deviation, read-out: log(EC50) Bacterial Proliferation Assay K. pneumoniae (converted).
[9] abbreviates: ATCC19434, OD600 at 24 h, read-out: Bacterial Proliferation EC50 E. faecium.
[10] abbreviates: ATCC19434, log of EC50 (μM scale), with standard deviation, read-out: log(EC50) Bacterial Proliferation Assay C. faecium (converted).
Where [11] appears, read: ATCC25923, OD600 at 6-8 h, read-out: Bacterial Proliferation EC50 S. aureus Sensitive.
[12] abbreviates: ATCC25923, log of EC50 (μM scale), with standard deviation, read-out: log(EC50) Bacterial Proliferation Assay S. aureus Sensitive (converted).
Setting [13] is: ATCC13047, OD600 at 6-8 h, read-out: Bacterial Proliferation EC50 E. cloacae.
[14] abbreviates: ATCC13047, log of EC50 (μM scale), with standard deviation, read-out: log(EC50) Bacterial Proliferation Assay E. cloacae (converted).
The mark [15] stands for this setting: MRSA, log of EC50 (μM scale), with standard deviation, read-out: log(EC50) Bacterial Proliferation Assay S. aureus Resistant (converted).
[16] abbreviates: ATCC10145, OD600 at 6-8 h, read-out: Bacterial Proliferation EC50 P. aeruginosa.
Where [17] appears, read: ATCC10145, log of EC50 (μM scale), with standard deviation, read-out: log(EC50) Bacterial Proliferation Assay P. aeruginosa (converted).
The mark [18] stands for this setting: MRSA, OD600 at 6-8 h, read-out: Bacterial Proliferation EC50 S. aureus Resistant.

For `O=C(Nc1ccccc1)c1cccc(Br)c1` [Compound 27, 3-Bromo-N-phenylbenzamide], the EC50 in experiment [1] (setting [7]), in experiment [1] (setting [8]), in experiment [2] (setting [9]), in experiment [2] (setting [10]), in experiment [3] (setting [11]) and in experiment [3] (setting [12]) was over 100 µM each time. In addition, the EC50 in experiment [4] (setting [13]), in experiment [4] (setting [14]), in experiment [5] (setting [15]), in experiment [6] (setting [16]) and in experiment [6] (setting [17]) was over 100 µM in each case.
In the case of `O=C(Nc1cccc(Cl)c1)c1cccc(Br)c1O` [Compound 10, 3-Bromo-N-(3-chlorophenyl)-2-hydroxybenzamide], the EC50 in experiment [1] (setting [7]) is over 100 µM; in experiment [1] (setting [8]), over 100 µM; in experiment [2] (setting [9]), over 100 µM; in experiment [2] (setting [10]), over 100 µM; in experiment [3] (setting [11]), 1.3 µM; in experiment [3] (setting [12]), 1.32 µM. For the same molecule, the EC50 in experiment [4] (setting [13]) was over 100 µM; in experiment [4] (setting [14]) it was over 100 µM; in experiment [5] (setting [18]), 2 µM; in experiment [5] (setting [15]), 2 µM; in experiment [6] (setting [16]) it was over 100 µM; in experiment [6] (setting [17]), over 100 µM.
On to `COc1ccc(Br)cc1C(=O)Nc1cccc(Cl)c1` [Compound 39, 5-Bromo-N-(3-chlorophenyl)-2-methoxybenzamide], for which the EC50 in experiment [1] (setting [7]), in experiment [1] (setting [8]), in experiment [2] (setting [9]), in experiment [2] (setting [10]), in experiment [3] (setting [11]) and in experiment [3] (setting [12]) was over 100 µM each time. Also, the EC50 in experiment [4] (setting [13]), in experiment [4] (setting [14]), in experiment [5] (setting [15]), in experiment [6] (setting [16]) and in experiment [6] (setting [17]) was over 100 µM in each case.
As for `O=C(Nc1ccc(Sc2nc3ccccc3s2)c(Cl)c1)c1ccccc1` [Compound 19, N-(4-(Benzo[d]thiazol-2-ylthio)-3-chlorophenyl)benzamide], the EC50 in experiment [1] (setting [7]) was over 100 µM; in experiment [1] (setting [8]), over 100 µM; in experiment [2] (setting [9]), over 100 µM; in experiment [2] (setting [10]) it was over 100 µM; in experiment [3] (setting [11]), 43 µM; in experiment [3] (setting [12]), 42.7 µM. For the same molecule, the EC50 in experiment [4] (setting [13]), in experiment [4] (setting [14]), in experiment [5] (setting [18]), in experiment [5] (setting [15]), in experiment [6] (setting [16]) and in experiment [6] (setting [17]) was over 100 µM each time.
For `COc1ccccc1C(=O)Nc1ccc(Sc2nc3ccccc3s2)c(Cl)c1` [Compound 32, N-(4-(Benzo[d]thiazol-2-ylthio)-3-chlorophenyl)-2-methoxybenzamide], the EC50 in experiment [1] (setting [7]), in experiment [1] (setting [8]), in experiment [2] (setting [9]), in experiment [2] (setting [10]), in experiment [3] (setting [11]) and in experiment [3] (setting [12]) was over 100 µM each time. Further, the EC50 in experiment [4] (setting [13]), in experiment [4] (setting [14]), in experiment [5] (setting [15]), in experiment [6] (setting [16]) and in experiment [6] (setting [17]) was over 100 µM each time.
With `O=C(Nc1ccc(Sc2nc3ccccc3s2)cc1)c1cc(Br)ccc1O` [Compound 7, N-(4-(Benzo[d]thiazol-2-ylthio)phenyl)-5-bromo-2-hydroxybenzamide], the EC50 in experiment [1] (ATCC13883, read-out: Bacterial Proliferation EC50 K. pneumoniae) was over 100 µM; in experiment [1] (ATCC13883, read-out: log(EC50) Bacterial Proliferation Assay K. pneumoniae (converted)) it was over 100 µM; in experiment [2] (ATCC19434, 24 h, read-out: Bacterial Proliferation EC50 E. faecium), 19 µM; in experiment [2] (ATCC19434, read-out: log(EC50) Bacterial Proliferation Assay C. faecium (converted)) it was 19.5 µM; in experiment [3] (ATCC25923, read-out: Bacterial Proliferation EC50 S. aureus Sensitive), 0.12 µM; in experiment [3] (ATCC25923, read-out: log(EC50) Bacterial Proliferation Assay S. aureus Sensitive (converted)), 0.12 µM. Besides, the EC50 in experiment [4] (ATCC13047, read-out: Bacterial Proliferation EC50 E. cloacae) is over 100 µM; in experiment [4] (ATCC13047, read-out: log(EC50) Bacterial Proliferation Assay E. cloacae (converted)), over 100 µM; in experiment [5] (read-out: Bacterial Proliferation EC50 S. aureus Resistant) it was 0.14 µM; in experiment [5] (read-out: log(EC50) Bacterial Proliferation Assay S. aureus Resistant (converted)) it was 0.141 µM; in experiment [6] (ATCC10145, read-out: Bacterial Proliferation EC50 P. aeruginosa) it was over 100 µM; in experiment [6] (ATCC10145, read-out: log(EC50) Bacterial Proliferation Assay P. aeruginosa (converted)) it was over 100 µM.
Take `O=C(Nc1ccc(Sc2nc3ccccc3s2)cc1)c1cc(Br)cc(Br)c1` [Compound 20, N-(4-(Benzo[d]thiazol-2-ylthio)phenyl)-3,5-dibromobenzamide]: the EC50 in experiment [1] (setting [7]), in experiment [1] (setting [8]), in experiment [2] (setting [9]), in experiment [2] (setting [10]), in experiment [3] (setting [11]) and in experiment [3] (setting [12]) was over 100 µM throughout. The EC50 in experiment [4] (setting [13]), in experiment [4] (setting [14]), in experiment [5] (setting [15]), in experiment [6] (setting [16]) and in experiment [6] (setting [17]) was over 100 µM in each case.
As for `O=C(Nc1ccc(Sc2nc3ccccc3s2)cc1)c1ccccc1` [Compound 22, N-(4-(Benzo[d]thiazol-2-ylthio)phenyl)benzamide], the EC50 in experiment [1] (setting [7]), in experiment [1] (setting [8]), in experiment [2] (setting [9]), in experiment [2] (setting [10]), in experiment [3] (setting [11]) and in experiment [3] (setting [12]) was over 100 µM each time. The EC50 in experiment [4] (setting [13]), in experiment [4] (setting [14]), in experiment [5] (setting [15]), in experiment [6] (setting [16]) and in experiment [6] (setting [17]) was over 100 µM each time.
Turning to `COc1c(Br)cc(Br)cc1C(=O)Nc1ccc(Sc2nc3ccccc3s2)cc1` [Compound 33, N-(4-(Benzo[d]thiazol-2-ylthio)phenyl)-3,5-dibromo-2-methoxybenzamide], the EC50 in experiment [1] (setting [7]), in experiment [1] (setting [8]), in experiment [2] (setting [9]), in experiment [2] (setting [10]), in experiment [3] (setting [11]) and in experiment [3] (setting [12]) was over 100 µM throughout. Besides, the EC50 in experiment [4] (setting [13]), in experiment [4] (setting [14]), in experiment [5] (setting [15]), in experiment [6] (setting [16]) and in experiment [6] (setting [17]) was over 100 µM each time.
